Earlier results, collected in patent US11253518B2, “Methods and compositions for the treatment of hair loss” (Aneira Pharma, Inc., priority 2019, dated 2022).
pEC50: −log10 of the molar value. ≈ marks a conversion by molar mass, not a printed value. Read-outs that look alike come from different tables or passages of the source. Blank lines part the entries; values can stand above or below the molecule they belong to.

Key:
human FP receptors [1] = biological target: T1, human FP receptors (Homo sapiens, UniProt P43088)
T1 sequence (P43088 whole entry): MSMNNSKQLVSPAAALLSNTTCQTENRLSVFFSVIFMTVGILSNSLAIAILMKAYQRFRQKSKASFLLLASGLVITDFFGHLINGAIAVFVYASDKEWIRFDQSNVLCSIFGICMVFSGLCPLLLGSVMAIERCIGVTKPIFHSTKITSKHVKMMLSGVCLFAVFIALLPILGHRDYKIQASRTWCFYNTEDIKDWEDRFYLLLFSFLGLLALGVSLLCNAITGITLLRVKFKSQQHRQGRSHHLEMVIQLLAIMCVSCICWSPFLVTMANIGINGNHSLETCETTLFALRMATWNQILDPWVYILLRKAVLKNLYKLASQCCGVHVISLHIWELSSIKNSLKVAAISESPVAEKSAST

human FP receptors [2] = biological target: T1, human FP receptors; remark: listed apart in the source
hair growth = details: for hair growth: McCarey 2004
[3] = believed
[4] = tested on: elevated intraocular pressure; details: glaucomatous monkeys; Gagliuso 2004
[5] = tested on: elevated intraocular pressure; details: some human glaucoma patients; Gandolfi 2003
[6] = tested on: production of dihydrotestosterone (DHT); details: oral; including prostate gland and scalp
[7] = not given; remark: listed apart in the source

Compound: CCCCCCCC(=O)CC[C@@H]1[C@@H](C/C=C\CCCC(=O)OC(C)C)[C@@H](O)C[C@H]1O [Uenoprostone isopropyl ester, Unoprostone isopropyl ester]
- incidence of iris pigmentation and eyelash changes (hair growth; 0.15%, two randomized clinical trials): Low incidence
- hair growth (hair growth): no hair growth

Compound: CC(C)(C)NC(=O)[C@H]1CC[C@H]2[C@@H]3CC[C@H]4NC(=O)C=C[C@]4(C)[C@H]3CC[C@]12C [finasteride, (1S,3aS,3bS,5aR,9aR,9bS,11aS)-N-tert-butyl-9a,11a-dimethyl-7-oxo-1,2,3,3a,3b,4,5,5a,6,9b,10,11-dodecahydroindeno[5,4-f]quinoline-1-carboxamide]
- decrease of production of dihydrotestosterone (DHT) [6]: about 70%

Compound: CCCCCCCC(=O)CC[C@@H]1[C@@H](C/C=C\CCCC(=O)O)[C@@H](O)C[C@H]1O [uenoprostone free acid]
- hair growth (hair growth): no hair growth

Second part, led by results:

- potency relative to PGF2α (human FP receptors [1]): twice the potency
- pEC50 (human FP receptors [1]; FP receptor agonist): 8.44
- potency as FP receptor ligand relative to latanoprost (human FP receptors [2]): two-hundred times more potent
Compound: O=C(O)CCC/C=C\C[C@@H]1[C@@H](CC[C@@H](O)CCc2ccccc2)[C@H](O)C[C@@H]1O [Latanoprost free acid]

- amount converted into bimatoprost free acid [3]: under 5%
Compound: CCNC(=O)CCC/C=C\C[C@@H]1[C@@H](/C=C/[C@@H](O)CCc2ccccc2)[C@H](O)C[C@@H]1O [bimatoprost, Bimatoprost]
- effect on intraocular pressure together with latanoprost [4]: additive
- reduction of elevated intraocular pressure in latanoprost non-responders [5]: responsive

- solubility (1:4 solution of ethanol:PBS (pH 7.2)): 400 µg/mL (≈ 925 µM)
- solubility (PBS (pH 7.2)): approximately 50 μg/mL
- solubility (propylene glycol, methanol, ethanol and 2-propanol): ≥ 5%
- stable for ([7]; acidic or basic aqueous solutions): no more than 48 hours
- stable for ([7]; neutral aqueous solutions, room temperature): up to one month
Compound: CC(C)OC(=O)CCC/C=C\C[C@@H]1[C@@H](CC[C@@H](O)CCc2ccccc2)[C@H](O)C[C@@H]1O [latanoprost, isopropyl ester of 17-phenyl-13,14-dihydro prostaglandin F2a]
